# Measurements from patent publication US5023275A, “S-substituted beta-thioacrylamide biocides and fungicides” (Rohm and Haas Company, priority 1990, dated 1991).
# Where two headings read alike, the source gives them in different places.
# How the values were obtained:
# [1] = system: Escherichia coli (E.c); assay: Alternate Minimum Inhibitory Concentration test, E.c (Table 7); type: cell-based; conditions: TSB, 72 hours, 30° C.
# [2] = system: Aureobasidium pullulans (A.p); assay: Alternate Minimum Inhibitory Concentration test, A.p (Table 7); type: cell-based; conditions: TSB, 72 hours, 30° C.
# [3] = system: Erysiphe graminis (f. sp. tritici); conditions: in vivo
# [4] = system: Aureobasidium pullulans (A.p); assay: MIC, broth two-fold serial dilution test, A.p (Table 6); type: cell-based; conditions: two-fold serial dilution in broth, 500 to 4 ppm
# Text: (§1) A minimum inhibitory concentration (MIC) value is obtained using a broth, two-fold serial dilution test performed as follows: […] A volume of the stock solution is dispensed into culture media to give an initial starting test concentration of 500 ppm compound. When the test is ready to be done, each vessel in the dilution series, except the first vessel, contains an equal volume of compound free broth. The first vessel contains twice the volume of broth with the starting concentration of test compound. One half of the broth from the first vessel is transferred to the second vessel. After being mixed, one half the resulting volume is removed from the second vessel and transferred to the third vessel. […] Each vessel is then inoculated with a cell suspension of the appropriate test organism. Bacteria are grown in broth and fungi on agar […] for a time and at a temperature appropriate to the species being tested. At the end of the growth period, the broth is vortexed to disperse the cells. In the case of fungi, the spores are harvested by pipetting water onto the slant and dislodging the spores with a sterile loop. The cell/spore suspension is standardized by controlling incubation time, temperature, and the volume of the diluent. The suspension is then used to inoculate the vessels containing the broth compound. The vessels are then incubated at the appropriate temperature. […]
# [5] = system: Aspergillus niger (A.n); assay: MIC, broth two-fold serial dilution test, A.n (Table 6); type: cell-based; conditions: two-fold serial dilution in broth, 500 to 4 ppm
# Text: as §1
# [6] = system: Pseudomonas fluorescens (Ps.fl); assay: MIC, broth two-fold serial dilution test, Ps.fl (Table 6); type: cell-based; conditions: two-fold serial dilution in broth, 500 to 4 ppm
# Text: as §1
# [7] = system: Phytophthora infestans; type: in vivo; conditions: tomato, 4 days after inoculation
# [8] = system: Staphylococcus aureus (S.a); assay: Alternate Minimum Inhibitory Concentration test, S.a (Table 7); type: cell-based; conditions: TSB, 72 hours, 30° C.
# [9] = system: Pseudomonas aerugenosa (Ps.ae); assay: Alternate Minimum Inhibitory Concentration test, Ps.ae (Table 7); type: cell-based; conditions: TSB, 72 hours, 30° C.
# [10] = system: Puccinia graminis (f. sp. tritici Race 15B-2); type: in vivo; conditions: wheat, two weeks
# [11] = system: Pseudoperonospora cubensis; conditions: in vivo
# [12] = system: Aspergillus niger (A.n); assay: Alternate Minimum Inhibitory Concentration test, A.n (Table 7); type: cell-based; conditions: TSB, 72 hours, 30° C.
# [13] = system: Pseudomonas fluorescens; assay: Speed of Kill (SOK) Test, 4 hours (Table 6); type: cell-based; conditions: Ps. fluorescens in synthetic hard water, 30° C., read-out: SOK: concentration at which compound killed >99.999% of the cells
# Text: The Speed of Kill (SOK) Test measures the loss of cell viability in an aqueous suspension of bacterial cells during a four hour period when these cells are contacted with a defined concentration of the test compound in synthetic hard water (SHW). A stock solution or dispersion of the test compound, typically at a concentration of 1%, is made in a 5:3:2 solvent solution of acetone, methanol, and water. The SHW is made by taking one liter of sterile deionized water and adding the following solutions to it:
# 1. 2 ml of a solution of 31.74 g of MgCl2 and 73.99 g of CaCl2 in 1000 ml. of sterile distilled water which has been heat sterilized.
# 2. 4 ml of a solution of 56.03 g of NaHCO3 in 1000 ml of water which has been filter sterilized.
# The combined solution is then filter sterilized to yield the SHW. A volume of the stock solution is dispensed into the SHW to give an initial test compound starting concentration of 500 ppm.
# When the test is ready to be run, each vessel in the dilution series, except the first vessel, contains an equal volume of the SHW mixture with the test compound. The first vessel contains twice the volume of SHW with the starting concentration of test compound. One half of the SHW from the first vessel is transferred to the second vessel. After being mixed, one half the resulting volume is removed from the second vessel and transferred to the third vessel. […]
# [14] = system: Piricularia oryzae; type: in vivo; conditions: rice, 7 to 8 days after inoculation
# [15] = system: Candida albicans (C.alb); assay: Alternate Minimum Inhibitory Concentration test, C.alb (Table 7); type: cell-based; conditions: TSB, 72 hours, 30° C.
# [16] = system: Staphylococcus aureus (S.a); assay: MIC, broth two-fold serial dilution test, S.a (Table 6); type: cell-based; conditions: two-fold serial dilution in broth, 500 to 4 ppm
# Text: as §1
# [17] = system: Pseudomonas fluorescens (Ps.fl); assay: Alternate Minimum Inhibitory Concentration test, Ps.fl (Table 7); type: cell-based; conditions: TSB, 72 hours, 30° C.
# Protocol: From this solution, 100 μl was transferred to the first row of two microtiter plate columns. […] Inoculation was accomplished by diluting a 24 hr Ps fl culture, four mls per 36 mls of phosphate buffer solution. A Dynatech autoinoculator was used to transfer 1.5 μl of this cell suspension to the microtiter plates.
# [18] = system: Pellicularia filamentosa (f. sp. sasiki); conditions: in vivo
# [19] = system: Escherichia coli (E.c); assay: MIC, broth two-fold serial dilution test, E.c (Table 6); type: cell-based; conditions: two-fold serial dilution in broth, 500 to 4 ppm
# Text: as §1
# [20] = system: Pseudomonas aerugenosa (Ps.ae); assay: MIC, broth two-fold serial dilution test, Ps.ae (Table 6); type: cell-based; conditions: two-fold serial dilution in broth, 500 to 4 ppm
# Text: as §1
# [21] = system: Puccinia recondita (f. sp. tritici Races PKB and PLD); conditions: in vivo
Structure (SMILES),MIC [1],MIC [2],% Control WPM [3],% Control TLB ([7]; application rate 300 ppm),MIC [8],MIC [9],% Control WSR ([10]; application rate 300 ppm),% Control CDM [11],MIC [12],% Control RB ([14]; application rate 200 ppm),MIC [15],MIC [17],% Control RSB [18],% Control TLB ([7]; application rate 100 ppm),% Control RB ([14]; application rate 100 ppm),also measured
"CC(=O)C(S/C(Cl)=C(/C)C(=O)Nc1ccc(Cl)cc1)C(C)=O [Example 1, N-(p-Chlorophenyl)-2-methyl-3-chloro-cis-3-thio-(1-acetylpropan-2-on-1-yl)acrylamide]",< 4 µg/mL,< 4 µg/mL,0%,90%,< 4 µg/mL,8 µg/mL,70%,100%,4 to 8 µg/mL,80%,< 4 µg/mL,4 to 16 µg/mL,0%,–,–,MIC [4]: < 4 µg/mL; MIC [5]: < 4 µg/mL; MIC [6]: < 4 µg/mL; MBC [13]: 32 µg/mL; MIC [16]: < 4 µg/mL; MIC [19]: < 4 µg/mL; MIC [20]: < 4 µg/mL
"CC(=O)C(S/C=C\C(=O)NCc1ccccc1)C(C)=O [Example 2, N-benzyl-cis-3-thio-(1-acetylpropan-2-on-1-yl)acrylamide]",63 to 125 µg/mL,31 µg/mL,0%,0%,31 µg/mL,500 µg/mL,40%,70%,125 to 500 µg/mL,–,31 to 63 µg/mL,> 500 µg/mL,0%,–,–,% Control RB ([14]; application rate 300 ppm): 0%
"CC(=O)C(S/C=C\C(=O)NCCc1ccccc1)C(C)=O [Example 3, N-(beta-phenethyl)-cis-3-thio-(1-acetylpropan-2-on-1-yl)-acrylamide]",250 µg/mL,8 to 16 µg/mL,0%,20%,63 µg/mL,> 500 µg/mL,40%,90%,63 to 500 µg/mL,94%,31 µg/mL,> 500 µg/mL,0%,–,–,–
"CC(=O)C(S/C=C\C(=O)NCc1ccc(Cl)cc1)C(C)=O [Example 4, N-(p-chlorobenzyl)-cis-3-thio-(1-acetylpropan-2-on-1-yl)-acrylamide]",63 µg/mL,16 µg/mL,0%,15%,31 µg/mL,> 500 µg/mL,30%,95%,31 to 500 µg/mL,89%,63 µg/mL,> 500 µg/mL,0%,–,–,–
"CC(=O)C(S/C(Cl)=C(/C)C(=O)Nc1ccccc1)C(C)=O [Example 5, N-phenyl-2-methyl-3-chloro-cis-3-thio-(1-acetylpropan-2-on-1-yl)acrylamide]",< 4 µg/mL,16 µg/mL,0%,–,8 µg/mL,16 to 31 µg/mL,–,49%,< 4 µg/mL,–,16 µg/mL,16 µg/mL,–,35%,50%,MIC [4]: 32 µg/mL; MIC [5]: < 4 µg/mL; MIC [6]: < 4 µg/mL; % Control WSR ([10]; application rate 100 ppm): 50%; MBC [13]: < 4 µg/mL; MIC [16]: < 4 µg/mL; MIC [19]: < 4 µg/mL; MIC [20]: 8 µg/mL
"CC(=O)C(S/C(Cl)=C\C(=O)Nc1ccc(Cl)cc1)C(C)=O [Example 6, N-(p-chlorophenyl)-3-chloro-cis-3-thio-(1-acetylpropan-2-on-1-yl)acrylamide]",–,–,0%,–,–,–,–,85%,> 500 µg/mL,–,–,> 500 µg/mL,0%,0%,50%,% Control WLR [21]: 50%
"CC(=O)C(S/C=C(/C)C(=O)Nc1ccc(Cl)cc1)C(C)=O [Example 7, N-(p-chlorophenyl)-2-methyl-cis-3-thio-(1-acetylpropan-2-on-1-yl)acrylamide]",63 to 125 µg/mL,4 to 8 µg/mL,60%,–,125 µg/mL,> 500 µg/mL,–,0%,31 to 63 µg/mL,–,16 µg/mL,> 500 µg/mL,0%,0%,50%,% Control WLR [21]: 50%
